The target in this data set is HSD17B13. The conditions noted are these: ASO, HepaRG.

After the bases stand the sugars from the 5' end (letter, count) and the backbone: PS all phosphorothioate, else s phosphorothioate and o phosphodiester by linkage. Methylation of C is not given here. e = 2'-O-(2-methoxyethyl) (MOE); k = constrained ethyl (cEt); d = 2'-deoxy (DNA); m = 2'-O-methyl

As to TCTTGGGTCCATTGTT (sugars k3 d10 k3, PS), under “1 µM”, the target mRNA inhibition was 60%.

As for “ACAGTCTTAAACCTTC (sugars kkdddddddddkekek, PS)”, where the note is “1 µM”, the target mRNA inhibition is 46%.

With “ATGGCTACAGATTGGA (sugars k3 d1 m1 d8 k3, PS)”, the target mRNA inhibition (1 µM) stood at 44%.

In the case of CAATTTATTTGCTGGT (sugars k3 d10 k3, PS), the target mRNA inhibition (1 µM) was 31%.

CTCTTTTTATAGACTG (sugars k3 d10 k3, PS): the target mRNA inhibition (1 µM) amounted to 63%.

With AGCTTAAACTCCAATG (sugars k3 d10 k3, PS), under “1 µM”, the target mRNA inhibition was 40%.

CTCCATCATCGATGGA (sugars k3 d10 k3, PS) registered a target mRNA inhibition (1 µM) of 0%.

With “AAATAGAGTCGGTCAC (sugars k3 d1 m1 d8 k3, PS)”, the target mRNA inhibition (1 µM) was 63%.

For TCTTTTTATAGACTGG (sugars k3 d10 k3, PS), the target mRNA inhibition (0.02 µM) stood at 0%; the target mRNA inhibition (0.078 µM) was 0%; the target mRNA inhibition (0.313 µM) came out at 35%; the target mRNA inhibition (1 µM) is 82%; the target mRNA inhibition (1.25 µM) came out at 55%; the target mRNA inhibition (5 µM) worked out at 90%.

The sequence TCTTAAGATACCCAGG (sugars k3 d10 k3, PS) returned a target mRNA inhibition (1 µM) of 58%.

Regarding TTTCATATCCAGTAGG (sugars k3 d10 k3, PS), the target mRNA inhibition (1 µM) stood at 36%.

CGGCAAATTTGCTGGA (sugars k3 d10 k3, PS) had a target mRNA inhibition (1 µM) of 29%.

CTTCTCTTGGGTCCAT (sugars k3 d10 k3, PS) came in with a target mRNA inhibition (1 µM) of 51%.

For the sequence TACCAGAGCATTCATC (sugars k3 d10 k3, PS), where the note is “1 µM”, the target mRNA inhibition was found to be 55%.

Regarding TGCCAGATTGCACAAA (sugars k3 d10 k3, PS), the target mRNA inhibition (1 µM) is 54%.

In the case of CACTGATTTAGTTGGT (sugars k3 d10 k3, PS), where the note is “1 µM”, the target mRNA inhibition was 66%.

“TATAGACTGGGTAGGA (sugars k3 d1 m1 d8 k3, PS)” had a target mRNA inhibition (1 µM) of 30%.

The sequence GAAATTGATACACCAA (sugars k3 d10 k3, PS) yielded a target mRNA inhibition (1 µM) of 67%.

Where the note is “1 µM”, CATCTACATGGATCCA (sugars k3 d10 k3, PS) came in with a target mRNA inhibition of 63%.

Where the note is “1 µM”, “AGAGAGTAATCAGTTT (sugars kkdddddddddkekek, PS)” showed a target mRNA inhibition of 52%.

In turn, GTATTAAGACAGTTGA (sugars k3 d10 k3, PS) displayed a target mRNA inhibition (1 µM) of 45%.

In turn, GAGGATAGTCCATGCA (sugars k3 d10 k3, PS) yielded a target mRNA inhibition (1 µM) of 59%.

In the case of “ACAGUCTTAAACCTTC (sugars k3 d1 m1 d8 k3, PS)”, the target mRNA inhibition reads like this: (0.02 µM) 19%; (0.078 µM) 35%; (0.313 µM) 41%; (1 µM) 81%; (1.25 µM) 67%; (5 µM) 85%.

In turn, “GTATAGTTATCTTCTC (sugars kkkdddddkdddkkke, PS)” came in with a target mRNA inhibition (1 µM) of 68%.

In the case of “TAGTCTTCAGCAAAGT (sugars kkdddddddddkekek, PS)”, the target mRNA inhibition (1 µM) was 35%.

CGTTTTGGGCTAATGA (sugars k3 d10 k3, PS) came in with a target mRNA inhibition (1 µM) of 48%.

In turn, “TGATTGAGTTCTCCAC (sugars kkdddddddddkekek, PS)” came in with a target mRNA inhibition (1 µM) of 32%.

For “AGTTAGTATAGTTATC (sugars k3 d1 m1 d8 k3, PS)”, the target mRNA inhibition (1 µM) was 42%.

Take TCATTAAGCTTAGTAT (sugars k3 d10 k3, PS): the target mRNA inhibition (1 µM) came out at 31%.

With GATTAATTCCCTTCCA (sugars k3 d10 k3, PS), the target mRNA inhibition (1 µM) came to 30%.

Under “1 µM”, GAGGGTCCACTTTTGG (sugars k3 d10 k3, PS) gave a target mRNA inhibition of 23%.

The sequence GTAATATTCATAGTTC (sugars k3 d10 k3, PS) had a target mRNA inhibition (1 µM) of 49%.

As for TAGCTAAGTATACTTT (sugars k3 d10 k3, PS), the target mRNA inhibition (1 µM) worked out at 10%.

TAGAGGGTCCACTTTT (sugars k3 d10 k3, PS): the target mRNA inhibition (1 µM) is 36%.

Turning to “GTGTUCTTGTTGATAT (sugars k3 d1 m1 d8 k3, PS)”, the target mRNA inhibition (1 µM) stood at 52%.

AGTAATTGCTATAGTA (sugars k3 d10 k3, PS) gave a target mRNA inhibition (1 µM) of 48%.

With “GATATTCTGTGGCATG (sugars k3 d9 k3 e1, PS)”, the target mRNA inhibition (0.02 µM) was found to be 8%; the target mRNA inhibition (0.078 µM) is 0%; the target mRNA inhibition (0.313 µM) is 43%; the target mRNA inhibition (1 µM) turned out to be 71%; the target mRNA inhibition (1.25 µM) turned out to be 65%; the target mRNA inhibition (5 µM) was found to be 80%.

As for ACCCAGTATTCACAAA (sugars k3 d10 k3, PS), the target mRNA inhibition (1 µM) worked out at 10%.

On to TTTTACTGGGATACTA (sugars k3 d10 k3, PS), for which the target mRNA inhibition (1 µM) was 27%.

Consider GACAGTTGAGTAGTGT (sugars k3 d10 k3, PS), for which the target mRNA inhibition (1 µM) turned out to be 46%.

Consider “GAAACTTGATCTCTTA (sugars k3 d9 k3 e1, PS)”, for which the target mRNA inhibition worked out at 0% (0.02 µM); 11% (0.078 µM); 60% (0.313 µM); 79% (1 µM); 82% (1.25 µM); 90% (5 µM).

“TTGCAGTTATTAGAAG (sugars kkdddddddddkekek, PS)”: the target mRNA inhibition (1 µM) turned out to be 27%.

On to “CTCAGGCTGTAAGAGT (sugars k3 d1 m1 d8 k3, PS)”, for which, under “1 µM”, the target mRNA inhibition is 46%.

On to AAGGACTTTCATAGGG (sugars k3 d10 k3, PS), for which, for the setting “1 µM”, the target mRNA inhibition came out at 71%.

Take ACAGTCTTAAACCTTC (sugars k3 d10 k3, PS): the target mRNA inhibition turned out to be 5% (0.02 µM); 16% (0.078 µM); 52% (0.313 µM); 76% (1 µM); 75% (1.25 µM); 80% (5 µM).

For the sequence GCAAGGATACCTGAAA (sugars k3 d10 k3, PS), where the note is “1 µM”, the target mRNA inhibition came to 67%.

Turning to AAGACAGACCAAGTAG (sugars k3 d10 k3, PS), the target mRNA inhibition (1 µM) came to 16%.

Sequence GGCTAAACCCTGGAGC (sugars k3 d10 k3, PS) yielded a target mRNA inhibition (1 µM) of 36%.

Under “1 µM”, TTGCTGGAACAATATG (sugars k3 d10 k3, PS) gave a target mRNA inhibition of 20%.

In turn, GAAAGATGGAATGAGC (sugars k3 d10 k3, PS) gave a target mRNA inhibition (1 µM) of 54%.

In the case of “TCCAUAATAATAGCTC (sugars k3 d1 m1 d8 k3, PS)”, the target mRNA inhibition (1 µM) came to 58%.

For the sequence TTGGTAAGTATTCCAT (sugars k3 d10 k3, PS), for the setting “1 µM”, the target mRNA inhibition is 20%.

Regarding GTTTGACTGCTGCTAG (sugars k3 d10 k3, PS), where the note is “1 µM”, the target mRNA inhibition was determined as 58%.

Under “1 µM”, “TAAGAGGCATGAAAGG (sugars k3 d1 m1 d8 k3, PS)” showed a target mRNA inhibition of 50%.

Consider GTTTTCGGCACTCAGC (sugars k3 d10 k3, PS), for which, under “1 µM”, the target mRNA inhibition is 51%.

CAGAAGTATGTGAACT (sugars k3 d10 k3, PS) showed a target mRNA inhibition (1 µM) of 22%.

For “TGTGGCATGGCTACAG (sugars k3 d9 k3 e1, PS)”, the target mRNA inhibition (1 µM) was 25%.

The sequence TGCTGAGAAGATCGGC (sugars k3 d10 k3, PS) displayed a target mRNA inhibition (1 µM) of 7%.

Regarding ATTAAGCAGAATTGTG (sugars k3 d10 k3, PS), the target mRNA inhibition (1 µM) was determined as 8%.

Sequence TTAAAGACAGGGTGGT (sugars k3 d10 k3, PS) had a target mRNA inhibition (1 µM) of 21%.

Regarding “TGCTAGTGCCAAACCA (sugars k3 d9 k3 e1, PS)”, the target mRNA inhibition is, setting by setting: (0.02 µM) 8%; (0.078 µM) 16%; (0.313 µM) 38%; (1 µM) 73%; (1.25 µM) 54%; (5 µM) 71%.

In the case of TCTATTAGTTGGCCTG (sugars k3 d10 k3, PS), the target mRNA inhibition (1 µM) is 26%.

As to GGTCCACTTTTGGTGG (sugars k3 d10 k3, PS), the target mRNA inhibition (1 µM) came to 13%.

For ATATCAATGCCTTAGC (sugars k3 d10 k3, PS), under “1 µM”, the target mRNA inhibition worked out at 32%.

Sequence “TCTTAGCTGTGCACTC (sugars k3 d1 m1 d8 k3, PS)” showed a target mRNA inhibition (1 µM) of 71%.

Sequence CAGCAAAGTTTGGGCA (sugars k3 d10 k3, PS) showed a target mRNA inhibition (1 µM) of 37%.

“TCCATAATAATAGCTC (sugars kkdddddddddkekek, PS)” showed a target mRNA inhibition (1 µM) of 41%.

With “CTGCTAGTGCCAAACC (sugars k3 d9 k3 e1, PS)”, the target mRNA inhibition (1 µM) came out at 67%.

Turning to CCTAGATTCTACACTA (sugars k3 d10 k3, PS), the target mRNA inhibition (1 µM) was 14%.

Regarding CTCTAAATACCCTTGG (sugars k3 d10 k3, PS), where the note is “1 µM”, the target mRNA inhibition amounted to 7%.

In the case of “CAGAGACATGAGGTTT (sugars k3 d9 k3 e1, PS)”, the target mRNA inhibition (1 µM) stood at 45%.

For “GTTCTTGTTGATATTC (sugars k3 d9 k3 e1, PS)”, the target mRNA inhibition (1 µM) worked out at 69%.

Under “1 µM”, “ACTAATATTGAGGCAC (sugars k3 d1 m1 d8 k3, PS)” had a target mRNA inhibition of 42%.

CTTAGGAAAGCTCATG (sugars k3 d10 k3, PS) registered a target mRNA inhibition (1 µM) of 0%.

GCCAAGGGAACACTGT (sugars k3 d10 k3, PS) had a target mRNA inhibition (1 µM) of 61%.

For the setting “1 µM”, “GTCTACCTCTAAGTTA (sugars k3 d9 k3 e1, PS)” had a target mRNA inhibition of 41%.

AAACTAGGAAGTGATC (sugars k3 d10 k3, PS): the target mRNA inhibition (1 µM) worked out at 39%.

For the sequence GCCATAATCTGTGATT (sugars k3 d10 k3, PS), the target mRNA inhibition (1 µM) was 0%.

The sequence GCATTGAAAAGATGTA (sugars k3 d10 k3, PS) registered a target mRNA inhibition (1 µM) of 0%.

As to “GAGACATGAGGTTTTG (sugars k3 d1 m1 d8 k3, PS)”, where the note is “1 µM”, the target mRNA inhibition was 61%.

With “CTCAGGCTGTAAGAGT (sugars k3 d9 k3 e1, PS)”, for the setting “1 µM”, the target mRNA inhibition is 21%.

Where the note is “1 µM”, GCTTAGTACCAAGACA (sugars k3 d10 k3, PS) showed a target mRNA inhibition of 62%.

ATGAGTAGGCAACTGA (sugars k3 d10 k3, PS) registered a target mRNA inhibition (1 µM) of 61%.

(Values after the OligoGym collection.)
